The results in this text go back to patent US20060182792A1, “Liposome-forming compositions” (priority 2002, published 2006).

As a reminder, the bioavailability is the share of a dose that reaches the circulation, judged against a reference dose that is usually intravenous. A high value points to good availability.

The series in a line: Absolute oral bioavailability of liposomally administered octreotide per os in rats. How it is done: Wistar rats (with approximately 250 g body weight) fast for 12 hours and receive 0.5 ml of the aqueous mixture of the composition according to the invention by pharyngeal probe so that the administered amount of octreotide is 100 μg per animal. As a comparative test 100 μg of free octreotide was dissolved in 0.5 ml of PBS and administered via pharyngeal probe. Blood samples were taken after 30, 60, 120 and 240 min. retroorbitally. An i.v. injection of 2 μg of octreotide per animal provided a control in order to determine the absolute bioavailability. […] Six animals were tested for each formulation.

Under “Wistar, rat, in vivo, 100 μg per animal”, `C[C@@H](O)[C@@H]1NC(=O)[C@H](CCCCN)NC(=O)[C@@H](Cc2c[nH]c3ccccc23)NC(=O)[C@H](Cc2ccccc2)NC(=O)[C@@H](NC(=O)[C@H](N)Cc2ccccc2)CSSC[C@@H](C(=O)N[C@H](CO)[C@@H](C)O)NC1=O` [Free, octreotide] displayed a bioavailability of 0.5%. For the same compound, the “Gain factor of the absolute bioavailability vs free octreotide” value (free octreotide, oral, 0.1 mg/animal, lipid/peptide 0) was found to be 1.
